Measurements published in patent US4676822A, “Fluid fertilizers containing thiophosphoryl triamide” (Tennessee Valley Authority, priority 1986, dated 1987).
“And” between values parts separate entries of the source, which are not always exact repeats. Identical values can stand only once. Like-named read-outs stand apart in the source and are kept apart here.

Legend:
[1] = test system: urease; settings: prior art; cited from earlier work
[2] = test system: urease; assay: Urease inhibition tests with TPTA and PPDA in fluid fertilizers, banded soil system (urease-active Hastings silt loam); format: biochemical; settings: for average % urea unhydrolyzed, 3 days / % urea unhydrolyzed, 3 days: 3 days incubation at 25° C.; for average % urea unhydrolyzed, 3 days / average % urea unhydrolyzed, 6 days: average of A and B samples; for % urea unhydrolyzed, 3 days / % urea unhydrolyzed, 6 days: single sample; for average % urea unhydrolyzed, 6 days / % urea unhydrolyzed, 6 days: 6 days incubation at 25° C.
Procedure: Samples of UAN (31-0-0), 1 g, and (36-0-0), 0.66 g containing approximately 0.38 g urea and 0.041 g of TPTA were prepared by dissolving solid TPTA in 31-0-0 and 36-0-0 of the compositions shown in Table I, supra. Identical samples containing PPDA and without either inhibitor were prepared to serve as references for purposes of data comparison.
Urease-active soil (Hastings silt loam) was moistened to a moisture content of 20 percent and preincubated at room temperature for two days. Plexiglass containers (6×6×6 cm) were one-half filled with soil and packed to a bulk density of 1.0 g/cm^3. The 31-0-0 and 36-0-0 samples containing TPTA and PPDA as well as samples containing no inhibitor were distributed evenly in a narrow band 6 cm along the soil surface. The containers were filled with soil and again packed to a bulk density of 1.0 g/cm^3. The containers were incubated at 25° C. for the desired reaction period. After incubation the soil from each container was thoroughly mixed, and a 10-g sample was extracted with 100 mL of 2M KCl containing 5 ppm phenylmercuric acetate to prevent urea hydrolysis during handling [L. A. Douglass and J. M. Bremner, Soil Sci. Soc. Am. Proc. 34, 859-862 (1970)]. The urea in the extracts was determined colorimetrically as a measure of unhydrolyzed urea. The results of three-day and six-day incubation tests are illustrated in Table II infra; and as noted supra, plotted in FIG. 1.

[3] = solid mixtures with urea, 25° C.; cited from earlier work
[4] = 25° C., cited from earlier work; for first-order reaction half-life: UAN (31-0-0)
[5] = compared with PPDA; cited from earlier work
[6] = 25° C., water partial pressure 12.73 mm of Hg; cited from earlier work

For `NP(N)(=O)O` [DAPA, diamidophosphoric acid], the “urease inhibition (in words)” value [1] is listed as “are urease inhibitors”.
In the case of `NP(=O)(O)O` [MAPA, monoamido phosphoric acid], the “urease inhibition (in words)” value [1] is listed as “are urease inhibitors”.
In the case of `NP(N)(=O)Oc1ccccc1` [PPDA, phenyl phosphorodiamidate, reference compound], the “average % urea unhydrolyzed, 3 days” value ([2]; UAN (31-0-0)) was 83.36%, the “% urea unhydrolyzed, 3 days” value ([2]; UAN (31-0-0)) was 83.64% and 83.09% and the “average % urea unhydrolyzed, 6 days” value ([2]; UAN (31-0-0)) was 12.61%. For the same compound, the “% urea unhydrolyzed, 6 days” value ([2]; UAN (31-0-0)) was 14.03% and 11.20%, the “average % urea unhydrolyzed, 3 days” value ([2]; UAN (36-0-0)) was 85.73% and 84% and the “% urea unhydrolyzed, 3 days” value ([2]; UAN (36-0-0)) was 86.22% and 81.24%. The “average % urea unhydrolyzed, 6 days” value ([2]; UAN (36-0-0)) was 11.32% and 11%, the “% urea unhydrolyzed, 6 days” value ([2]; UAN (36-0-0)) was 12.10% and 10.53% and the “half-life of PPDA in mixtures with urea” value [3] was 0.9 years. For the same compound, the first-order reaction half-life ([4]; pH 6.46) was 6.1 days, the first-order reaction half-life ([4]; pH 8.14) was 1.2 days and the decomposition rate constant ([4]; UAN (36-0-0) saturated with PPDA) was 10.2 percent decomposition per day. The decomposition rate constant ([4]; UAS (29-0-0-5S) saturated with PPDA) was 20.5 percent decomposition per day and the “urease inhibition (in words)” value [1] was “extremely potent inhibitor of urease activity”.
In the case of `NP(N)(N)=O` [PTA, phosphoryl triamide], the “stability in urea melt” value [5] is given as “much less stable in urea melt than PPDA” and the “reaction half-life in solid mixtures with urea” value [6] is given as 4.3 h.
